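Dose response: 5 concentrations. Exposure: 48 h. Format: 96-well plates. Endpoint: linear interpolation; highest concentration if not reached. GI50: concentration for 50% inhibition of growth. TGI is the concentration that stops growth completely.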
Assays:
Assay in all cases: growth of human tumour cells (NCI), 48 h
[1] = system: OVCAR-3 ovarian
[2] = system: SW-620 colon
[3] = system: T-47D breast
[4] = system: MDA-MB-435
[5] = system: SN12C renal
[6] = system: HS 578T breast
[7] = system: M14 melanoma
[8] = system: UACC-62 melanoma
[9] = system: HL-60(TB) leukemia
[10] = system: UO-31 renal

Row | SMILES | TGI [1] | TGI [2] | TGI [3] | TGI [4] | TGI [5] | TGI [6] | TGI [7] | TGI [8] | TGI [9] | TGI [10] | GI50 [1] | GI50 [8] | GI50 [5]
1 | Cn1c2ccccc2n2c(=O)c3cccnc3c(C#N)c12 | > 100 µM | > 100 µM | > 100 µM | > 100 µM | > 100 µM |  |  |  |  |  |  |  | 
2 | CCn1c(-c2ccc(C)cc2)cs/c1=N\C(P(=O)(O)O)P(=O)(O)O | > 100 µM | > 100 µM |  | > 100 µM |  | > 100 µM | > 100 µM | > 100 µM | > 100 µM | > 100 µM |  |  | 
3 | S=C(c1c[nH]c2ccccc12)N1CCN(c2ccccc2)CC1 | > 100 µM | > 100 µM |  | > 100 µM | 59.9 µM | 38.3 µM | > 100 µM | > 100 µM | > 100 µM |  |  |  | 
4 | O=C1/C(=C/c2cccs2)NC(=S)N1CN1CCOCC1 | > 100 µM | > 100 µM |  | > 100 µM | > 100 µM | > 100 µM | > 100 µM | > 100 µM |  | > 100 µM |  |  | 
5 | Nc1nc(N)c2nnn(C[C@H]3CC[C@@H](CO)C3)c2n1 | > 100 µM | > 100 µM |  | > 100 µM | 93.3 µM | > 100 µM | > 100 µM | > 100 µM | > 100 µM | > 100 µM |  |  | 
6 | COc1ccc(CCc2ccc(O)c(C(=O)O)c2)cc1OC | > 100 µM |  | > 100 µM | > 100 µM | > 100 µM | > 100 µM | > 100 µM | > 100 µM | > 100 µM | > 100 µM |  |  | 
7 | COc1ccc(C2SCC(=O)N2NC(=O)C(C)Oc2ccccc2Cl)cc1 (stereo not given) |  | > 100 µM | > 100 µM | > 100 µM | > 100 µM | > 100 µM | > 100 µM | > 100 µM | 35.2 µM | > 100 µM |  |  | 
8 | C=Cc1cc2c(cc1O)CC[C@@H]1[C@@H]2CC[C@]2(C)[C@@H](O)CC[C@@H]12 | 8.74 µM | 14.2 µM | 36.2 µM | 4.29 µM | 19.5 µM |  | 17.7 µM | 8.65 µM | 7.27 µM | 20.5 µM | 2.57 µM | 2.53 µM | 5.12 µM
9 | CC1C(c2ccc3c(c2)OCO3)c2cc3c(cc2OC1N1CCCCC1)OCO3 (stereo not given) | > 100 µM | > 100 µM | > 100 µM | 62.8 µM | > 100 µM | > 100 µM | > 100 µM | > 100 µM |  | > 100 µM |  |  | 
10 | COc1cc2cc(C(=O)N3CC(CCl)c4c3cc(N(C)C)c3ccccc43)[nH]c2c(OC)c1OC (stereo not given) | 0.0377 µM | > 100 µM |  |  | 0.235 µM | 0.135 µM | 0.0185 µM | 0.0167 µM |  |  |  |  | 
11 | Cc1ccc(Nc2sc(C)cc2C#N)c([N+](=O)[O-])c1 | > 100 µM | > 100 µM | > 100 µM | > 100 µM | > 100 µM |  | > 100 µM | > 100 µM |  | > 100 µM |  |  | 
12 | Fc1cc(-c2ncc(Cl)cc2Cl)c2cccccc1-2 | > 100 µM |  |  |  |  | > 100 µM | > 100 µM | > 100 µM |  | > 100 µM |  |  | 
13 | N#CC(N=Nc1ccccc1)c1nc2ccccc2o1 (stereo not given) | 92.7 µM |  | 39.9 µM | > 100 µM | > 100 µM | 66.8 µM | > 100 µM | > 100 µM | > 100 µM | > 100 µM |  |  | 

Source: PubChem BioAssay (NCI)
